# Measurements taken from US20240150755A1, “MODULATING REGULATORY T CELL FUNCTION IN AUTOIMMUNE DISEASE AND CANCER” (Salk Institute for Biological Studies, priority 2021, published 2024).
# Entries after “also recorded” stand apart in the source; their conditions may differ.
# Experiments:
# Assay type in all cases: cell-based, mouse
# Foxp3-bound sites = experiment: Foxp3 ChIP-seq in Treg cells
# Excerpt: (§1) For large scale Treg culture, Tregs were first expanded in Rosa-Cas9/Foxp3^Thy1.1 mice by injecting IL-2:IL-2 antibody immune complex according protocol described in Webster et. al (J Exp Med 206, 751-760, 2009). Spleen and lymph node Treg cells were labeled with PE-conjugated Thy1.1 antibody and isolated by magnetic selection using anti-PE microbeads (Mitenyl #130-048-801). All isolated Treg cells were activated by plate bound anti-CD3 and anti-CD28 antibodies and cultured with X-VIVO® 20 media (LONZA #04-448Q) supplemented by 1× Pen/Strep, 1× Sodium pyruvate, 1× HEPES, 1× GlutaMax™, 55 μM beta-mercaptoethanol in the presence of IL-2 at 500 units/mL. For experiments with Brd9 degradation, Treg cells were treated at day 0 with 2.5 μM dBRD9 (Tocris #6606) and cultured for four days for RNA- and ChIP-seq and 0.16-10 μM treated at day 0 and cultured dBRD9 for four days for Foxp3 MFI, cell viability and cell proliferation assays. Live cells were enriched by Ficoll-Paque® 1.084 (GE Health 17-5446-02) for RNA-seq and ChIP-seq.
# (§2) Treg cells were collected and cross-linked first in 3 mM disuccinimidyl glutarate (DSG) in 1×PBS for thirty minutes then in 1% formaldehyde for another ten minutes, both at RT, for chromatin binding protein ChIP or in 1% formaldehyde only for histone modification ChIP. After quenching the excess cross-linker with a final concentration of 125 mM glycine, the cells were washed in 1× PBS, pelleted, flash-frozen in liquid nitrogen, and stored at −80° C. Cell pellets were thawed on ice and incubated in lysis solution (50 mM HEPES-KOH pH 8, 140 mM NaCl, 1 mM EDTA, 10% glycerol, 0.5% NP40, 0.25% Triton X-100) for ten minutes. The isolated nuclei were washed with wash solution (10 mM Tris-HCl pH 8, 1 mM EDTA, 0.5 mM EGTA, 200 mM NaCl) and shearing buffer (0.1% SDS, 1 mM EDTA, 10 mM Tris-HCl pH 8) then sheared in a Covaris® E229 sonicator for ten minutes to generate DNA fragments between ˜200-1000 base pairs (bp). After clarification of insoluble material by centrifugation, the chromatin was immunoprecipitated overnight at 4° C. with antibodies against Foxp3, Smarca4, Brd9, Phf10 or H3K27ac. The next day, the antibody bound DNA was incubated with Protein A+G Dynabeads™ (Invitrogen) in ChIP buffer (50 mM HEPES-KOH pH 7.5, 300 mM NaCl, 1 mM EDTA, 1% Triton X-100, 0.1% DOC, 0.1% SDS), washed and treated with Proteinase K and RNase A. Cross-linking was reversed by incubation at 55° C. for two and a half hours. Purified ChIP DNA was used for library generation (NuGen Ovation® Ultralow Library System V2) according to manufacturer's instructions for subsequent sequencing.
# Single-end 50 bp or paired-end 42 bp reads were aligned to mouse genome mm10 using STAR alignment tool (V2.5) (Dobin et al., Bioinformatics 29:15-21, 2013). ChIP-Seq peaks were called using findPeaks within HOMER using parameters for histone (-style histone) or transcription factor (-style factor) (homer.ucsd.edu/homer/index.html). Peaks were called when enriched >two-fold over input and >four-fold over local tag counts, with FDR 0.001. For histone ChIP, peaks within a 1000 bp range were stitched together to form regions. Differential ChIP peaks were found by merging peaks from control and experiment groups and called using getDiffExpression.pl with fold change ≥1.5 or ≤−1.5, Poisson p value<0.0001.
# Treg cells [1] = experiment: Cell division by CellTrace dilution in Treg cells; conditions: dBRD9 in increasing concentrations for 4 days
# Excerpt: as §1
# Foxp3 = Foxp3 expression (MFI) in Treg cells by flow cytometry
# Excerpt: as §1
# HEK293T cells were seeded in 6-wells plate at 0.5 million cells per 2 mL DMEM media supplemented by 10% FBS, 1% Pen/Strep, 1× GlutaMax®, 1× Sodium Pyruvate, 1× HEPES, and 55 μM beta-mercaptoethanol. […] Transduced cells were analyzed for Foxp3 and cytokine expression in eBioscience® Fix/Perm buffer (eBioscience #00-5523-00) using flow cytometry. […]
# Treg cells [2] = experiment: In vitro Treg suppression assay
# Excerpt: Treg cells were transduced by retrovirus expressing sgRNA targeting gene of interest and cultured in X-VIVO® complete media supplemented with IL-2 (500 U/ml). Four days after transduction, transduced cells were […] a fluorescence-activated cell sorter (FACS). CD45.1+ naive CD4 T cells (CD4^+CD25^−CD44^loCD62^hi) were labeled with CellTrace™ Violet (Thermo Fisher Scientific #C34571) in different ratio in the presence of irradiated T cell depleted spleen cells as antigen-presenting cells (APC). Three days later, Treg suppression function was measured by the percentage of non-dividing cells within the CD45.1^+ effector T cell population. For dBRD9 treatment experiment, dBRD9 was first dissolved in DMSO (10 mM stock) and added into Treg:Teff:APC mixture at 2.5 μM. For Foxp3 overexpression rescue experiment, Treg cells were first transduced with sgNT or sgBrd9 at 24 hour post-activation, and then transduced with MIGR empty vector or MIGR-Foxp3 at 48 hour post-activation. Double transduced Treg cells were FACS sorted on day 4 based on NGFR+ and GFP+ markers and then mixed with CellTrace™ labeled effector T cells in the presence of APC. Treg suppression readout was measured after three days of co-culture.
# Treg cells [3] = experiment: Cell viability by Ghost Dye in Treg cells; conditions: dBRD9 in increasing concentrations for 4 days
# Excerpt: as §1
# Foxp3 target genes = experiment: RNA-seq and gene set enrichment analysis in Treg cells; conditions: sgRNA transduced Treg cells vs sgNT
# Excerpt: as §1
# RNA from 1-3×10^6 cells was extracted and purified with TRIzol™ reagent (Thermo Fisher) according to manufacturer's instructions. RNA-seq libraries were prepared using Illumina® TruSeq® Stranded mRNA kit following manufacturer's instructions with 5 μg of input RNA.
# Single-end 50 bp reads were aligned to the mouse genome mm10 using STAR alignment tool (V2.5) (Dobin et al., Bioinformatics 29:15-21, 2013). RNA expression was quantified as raw integer counts using analyzeRepeats.pl in HOMER (Heinz et al., Mol Cell 38:576-589, 2010) using the following parameters: -strand both -count exons -condenseGenes -noadj. To identify differentially expressed genes, getDiffExpression.pl in HOMER was used, which uses the DESeq2R package to calculate the biological variation within replicates. Cut-offs were set at log 2 FC=0.585 and FDR at 0.05 (Benjamin-Hochberg). Principal Component Analysis (PCA) was performed with the mean of transcript per million (TPM) values using Cluster 3.0 with the following filter parameters: at least one observation with absolute value equal or greater than two and gene vector of four. TPM values were log transformed then centered on the mean.
# GSEA software (Mootha et al., Nat Genet 34:267-273, 2003; Subramanian et al., PNAS 102:15545-15550, 2005) was used to perform the analyses with the following parameters: number of permutations=1000; enrichment statistic=weighted; and metric for ranking of genes=difference of classes (Input RNA-seq data was log-transformed). For GSEA analysis, input RNA-seq data contained the normalized log-transformed reads of the 1,325 differentially expressed genes (DEGs) in sgFoxp3/sgNT Treg cells. The compiled gene list included GSEA Gene Ontology, Immunological Signature, Curated Gene, and the up and down DEGs in sgBrd9/sgNT Treg cells.
# For gene expression analysis in FIG. 42F, Foxp3 ChIP-seq tags were quantified at the union of sites bound by Foxp3 in sgNT and sgBrd9 using the annotatePeaks.pl command in HOMER with size-given and each site was annotated to a gene by mapping to the nearest TSS. Sites were ranked from least to largest Foxp3 ChIP-seq Log2FC in sgBrd9 vs sgNT and divided into quartiles. Gene expression for the genes in the top and bottom quartiles (Brd9-dependent and -independent, respectively) was then plotted using RNA-seq data from Treg cells transduced with sgBrd9, sgSmarcd1, or sgPbrm1 compared to sgNT. […]
# H3K27ac = H3K27ac ChIP-seq in Treg cells; conditions: sgRNA transduced Treg cells
# Experimental: as §2, with “The next day, the antibody bound DNA was incubated with Protein A+G Dynabeads™ (Invitrogen) in ChIP buffer (50 mM HEPES-KOH pH 7.5, 300 mM NaCl, 1 mM EDTA, 1% Triton X-100, 0.1% DOC, 0.1% SDS), washed and treated with Proteinase K and RNase A. Cross-linking was reversed by incubation at 55° C. for two and a half hours. Purified ChIP DNA was used for library generation (NuGen Ovation® Ultralow Library System V2) according to manufacturer's instructions for subsequent sequencing.” left out
# Single-end 50 bp or paired-end 42 bp reads were aligned to mouse genome mm10 using STAR alignment tool (V2.5) (Dobin et al., Bioinformatics 29:15-21, 2013). […]
molecule,measurement,setting,value
COc1cc(-c2cn(C)c(=O)c3cnccc23)cc(OC)c1CN(C)CC(=O)NCCOCCOCCNc1cccc2c1C(=O)N(C1CCC(=O)NC1=O)C2=O (stereo not shown) [dBRD9],Foxp3 binding to chromatin,"Foxp3-bound sites; Treg cells, 2.5 μM dBRD9 for 4 days vs DMSO",diminished Foxp3 binding to chromatin at a subset of Foxp3 target sites
same,cell proliferation,Treg cells [1],without affecting cell viability or proliferation; also recorded: without affecting cell viability and proliferation
same,Foxp3 expression (MFI),"Foxp3; Treg cells, 0.16-10 μM dBRD9 for 4 days vs DMSO",significantly decreased Foxp3 expression in Treg cells in a concentration-dependent manner; also recorded: reduces Foxp3 expression
same,T effector responses,"Treg cells [2]; dBRD9 2.5 μM, in vitro",without impairing T effector responses
same,Treg suppressor function,Treg cells [2]; dBRD9 added to Treg:Teff:APC mixture at 2.5 μM,significantly and specifically compromised Treg suppressor function; also recorded: reduces Treg suppressor activity
same,cell viability,Treg cells [3],without affecting cell viability
"sgSmarcd1: sgRNA targeting Smarcd1, CAATCCGGCTAAGTCGGACG (SEQ ID NO: 15) (expressed or natural sequence)",gene expression of Brd9-dependent vs Brd9-independent Foxp3 target genes,Foxp3 target genes,significantly more affected
"sgUsp22: sgRNA targeting Usp22, GCCATCGACCTGATGTACGG (SEQ ID NO: 18) (expressed or natural sequence)",Foxp3 expression (MFI),Foxp3; sgRNA transduced Cas9 Treg cells vs sgNT,reduces Foxp3 expression
same,Treg suppressor activity,Treg cells [2]; sgRNA transduced Treg cells vs sgNT,compromised Treg suppressor activity
"sgPbrm1: sgRNA targeting Pbrm1, AAAACACTTGCATAACGATG (SEQ ID NO: 8) (expressed or natural sequence)",Foxp3 binding at CNS2/CNS0,Foxp3-bound sites; sgRNA transduced Treg cells,subtle increase in Foxp3 binding at CNS2/CNS0
same,Foxp3 binding at a subset of Foxp3 sites (Brd9-dependent sites),"Foxp3-bound sites; sgRNA transduced Treg cells, FC1.5, Poisson p<0.0001",did not change
"sgFoxp3: sgRNA targeting Foxp3, TCTACCCACAGGGATCAATG (SEQ ID NO: 1) (expressed or natural sequence)",Foxp3 binding at CNS2/CNS0,Foxp3-bound sites; sgRNA transduced Treg cells,dramatic reduction in Foxp3 binding at CNS2/CNS0
same,Foxp3 binding sites at which Foxp3 binding was lost,"Foxp3-bound sites; sgRNA transduced Treg cells, genome-wide",over 85%
same,genes with increased expression,Foxp3 target genes; RNA-seq,532 genes
same,genes with reduced expression,Foxp3 target genes; RNA-seq,793 genes
same,H3K27ac at Brd9-dependent Foxp3 sites,H3K27ac,reduction in H3K27ac
